Measured values: patent publication US20080247979A1, “Use of a Hydrophobic Zeolite, that Contains and Gives a Slow Release of an Active Element, for Treatment of Skin” (priority 2005, published 2008)

Experiment: free release of ethanol from loaded hydrophobic zeolite over time, with parallel evaporation of non-adsorbed ethanol
Format: physicochemical
Details: one gram ethanol not adsorbed to any hydrophobic zeolite, reduced to 0,5 grams
Experimental: After 12 hours, at 29 degrees C., hydrophobic zeolite Y powder has dropped approximately 70% of its ethanol.
Hydrophobic zeolite Y was loaded with 16 weight per cent ethanol and its free release of ethanol over the time at a surrounding temperature off 29 degrees C. was studied. The result appears in FIG. 1. Which also appears from FIG. 1, the hydrophobic zeolite had, after approximately 5 hours, given the half amount of its ethanol, and was still active.
In a parallel experiment evaporation of 95% ethanol, not adsorbed to any hydrophobic zeolite, was measured. One gram of this ethanol had after 8 minutes been reduced through evaporation to 0,5 grams, i e to half the amount. This is a drastic difference compared with ethanol which is adsorbed to hydrophobic zeolite. If the experiment had been executed with 99.5% ethanol instead of 95% it would presumably have been even smaller. Through the hydrophobic zeolite composition the skin is exposed to ethanol vapour during 50 times's longer time as in a normal sponging.
The mentioned hydrophobic zeolite loaded with ethanol gives a vapour that is near 100% ethanol in composition. The ethanol vapour can aggressively attack skin bacteria's in their hydrophobic environment during relatively long time.

CCO [95% ethanol, ethanol]
time until reduced through evaporation to half the amount: 8 min
